Data on 2 molecules can be found in patent US20250332176A1, “TREATMENT FOR FIBROSIS AND INHIBITION OF FIBROSIS” (GALMED RESEARCH AND DEVELOPMENT LTD, priority 2022, published 2025).

The assay relates to Male C57BL/12 mice. Description: Bleomycin (BLM)-induced pulmonary fibrosis model. Format: in vivo. The settings on record: bleomycin 1.5 U/kg intratracheal, prophylactic, day 0→21. How it is done:
The following model was employed: • Male C57BL/12 mice,22-26 g • Induction by administration of Bleomycin (1.5 U/kg), intratracheal • Ref. Comp.: Pirfenidone, 100 mg/kg, p.o., BID • Treatment Mode: Prophylactic (from day 0→21)
Pulmonary fibrosis was induced by bleomycin (BLM) and treated with aramchol (meglumine salt). As a reference, results for the known anti-idiophatic pulmonary fibrosis agent pirfenidone are also presented, in FIGS. 26A-26B, where hydroxyproline was used as biomarker for fibrosis (hydroxyproline use as idiophatic pulmonary fibrosis biomarker is disclosed in “Lung fibrosis is ameliorated by pirfenidone fed in diet after the second dose in a three-dose bleomycin-hamster model”, Iyer, Swarnalatha N.; Margolin, S. B.; Hyde, D. M.; Giri, S. N.; Experimental Lung Research (1998), 24(1), 119-132; and “Simple determination of L-hydroxyproline in idiopathic pulmonary fibrosis lung tissues of rats using non-extractive high-performance liquid chromatography coupled with fluorescence detection after pre-column derivatization with novel synthetic 9-acetylimidazol-carbazole”, Ren, Y.; Zhao, J.; Shi, Y.; Chen, C.; Chen, X.; Lv, C.; Journal of Pharmaceutical and Biomedical Analysis 2017, 142, 1-6).

Turning to `CCCCCCCCCCCCCCCCCCCC(=O)N[C@H]1CC[C@@]2(C)[C@@H](C1)C[C@@H](O)[C@@H]1[C@@H]2C[C@H](O)[C@]2(C)[C@@H]([C@H](C)CCC(=O)O)CC[C@@H]12` [aramchol], the “histopathology of the lungs (H&E, COL1A1, aSMA; FIG. 27)” value was “very similar to the one of pirfenidone”. Where the note is “compared to pirfenidone”, the “Ashcroft score, COL1A1 and aSMA quantification (FIGS. 28A-28E)” value is “treats the fibrosis in better (higher) extent and has more significant effect”.

As to `Cc1ccc(=O)n(-c2ccccc2)c1` [pirfenidone, reference compound], the “histopathology of the lungs (H&E, COL1A1, aSMA; FIG. 27)” value is reported as “much more similar to the one without the fibrosis”.
